Common to all, as to format: biochemical
One test has as its target T1, Ascaris suum complex II (Ascaris suum, UniProt O44074+P92506+P92507).
T1 construct: the purified complex II prepared according to the method of F. Saruta et al; from tissue; complex II purified by the method of Saruta et al. 1995
Description: Inhibition of succinate dehydrogenase activity of Ascaris suum complex II (DCIP reduction). Here is the method:
With regard to the complex II of the Ascaris suum, the purified complex II prepared according to the method of F. Saruta et al. [Stage-specific Isoforms of Complex II (Succinate-Ubiquinone Oxidoreductase) in Mitochondria from the Parasitic Nematode, Ascaris suum: J. Biol. Chem. 270, 928-932, 1995] was used. Succinate dehydrogenase activity of the complex II was measured by changes of maximum absorption, which was specific to the electron acceptor (DCIP), from oxidized form of DCIP to reduced form with the addition of succinate.
(§1) Namely, ubiquinone-2 and DCIP were added to the level of 100 ìM and 70 ìM, respectively, into 50 mM phosphate buffer (pH 7.5); atpenin A4 was added therein; further the complex II was added thereto; then potassium succinate with final concentration of 10 mM was added; and the reaction was started at 25° C. Reaction rate was measured by that the formation rate of reduced form of DCIP (amM^−1 1 cm^−1: 21) which accepted electron from succinate was measured at absorption changes of 600 nm. Activity was indicated by molar numbers of DCIP reduced per minute. Potassium cyanide, final concentration of 10 mM, was added due to necessity for prevention of leakage of reduction activity by inhibiting terminal oxidase.
(§2) With regard to the complex II of the Ascaris suum, the purified complex II prepared according to the same method of example 3 was used. Succinate dehydrogenase activity of the complex II was measured by changes of maximum absorption, which was specific to the electron acceptor (DCIP), from oxidized form of DCIP to reduced form with the addition of succinate. […] Reaction rate was measured by that the formation rate of reduced form of DCIP (amM^−1 1 cm^−1: 21) which accepted electron from succinate was measured at absorption changes of 600 nm. […]
as §2
With regard to the complex II of the Ascaris suum, the purified complex II prepared according to the same method of example 3 was used. Succinate dehydrogenase activity of the complex II was measured by changes of maximum absorption, which was specific to the electron acceptor (DCIP), from oxidized form of DCIP to reduced form with the addition of succinate. […]

For the next test, the target named is T2, rat liver complex II (Rattus norvegicus, UniProt P21913+Q641Z9+Q6PCT8).
T2 construct: from tissue; host or cells: rat liver mitochondria
Description: Inhibition of succinate dehydrogenase activity of rat liver complex II (DCIP reduction). Here is the method: as §1, with “With regard to the complex II of the rat liver, mitochondria prepared according to the same method described in the referential example 1 was used. Succinate dehydrogenase activity of the complex II was measured by changes of maximum absorption, which was specific to the electron acceptor (DCIP), from oxidized form of DCIP to reduced form with the addition of succinate. Namely,” for “Namely,”
(§3) With regard to the complex II of the rat liver, mitochondria prepared according to the same method described in the referential example 1 was used. Succinate dehydrogenase activity of the complex II was measured by changes of maximum absorption, which was specific to the electron acceptor (DCIP), from oxidized form of DCIP to reduced form with the addition of succinate. […] Reaction rate was measured by that the formation rate of reduced form of DCIP (amM^−1 1 cm^−1: 21) which accepted electron from succinate was measured at absorption changes of 600 nm. […]
as §3
With regard to the complex II of the rat liver, mitochondria prepared according to the same method described in the referential example 1 was used. Succinate dehydrogenase activity of the complex II was measured by changes of maximum absorption, which was specific to the electron acceptor (DCIP), from oxidized form of DCIP to reduced form with the addition of succinate. […]

For test [1], the target named is T3, bovine heart complex II (succinate-ubiquinone oxidoreductase) (Bos taurus, UniProt P35720+Q3T189+Q95123).
T3 construct: of the bovine heart, mitochondria prepared according to the method of S. Takamiya et al; from tissue; host or cells: bovine heart mitochondria
Description: Inhibition of succinate dehydrogenase activity of bovine heart complex II (DCIP reduction).
Description: With regard to the complex II (succinate-ubiquinone oxidoreductase) of the bovine heart, mitochondria prepared according to the method of S. Takamiya et al. (Developmental changes in the respiratory chain of Ascaris mitochondria, Biochim. Biophys. Acta, 1141, 65-71, 1993) were used. Succinate dehydrogenase activity of the complex II was measured by changes of maximum absorption, which was specific to the electron acceptor (DCIP), from oxidized form of 2,6-dichlorophenolindophenol (DCIP, Sigma Inc.) to reduced form with the addition of succinate.
With regard to the complex II of the bovine heart, mitochondria prepared according to the same method described in the referential example 1 was used. Succinate dehydrogenase activity of the complex II was measured by changes of maximum absorption, which was specific to the electron acceptor (DCIP), from oxidized form of DCIP to reduced form with the addition of succinate. […] Reaction rate was measured by that the formation rate of reduced form of DCIP (amM^−1 1 cm^−1: 21) which accepted electron from succinate was measured at absorption changes of 600 nm. Activity was indicated by molar numbers of DCIP reduced per minute. Potassium cyanide, final concentration of 10 mM, was added due to necessity for prevention of leakage of reduction activity by inhibiting terminal oxidase.
With regard to the complex II (succinate-ubiquinone oxidoreductase) of the bovine heart, mitochondria prepared according to the same method described in the referential example 1 was used. Succinate dehydrogenase activity of the complex II was measured by changes of maximum absorption, which was specific to the electron acceptor (DCIP), from oxidized form of DCIP to reduced form with the addition of succinate. […] Reaction rate was measured by that the formation rate of reduced form of DCIP (amM^−1 1 cm^−1: 21) which accepted electron from succinate was measured at absorption changes of 600 nm. Activity was indicated by molar numbers of DCIP reduced per minute. Potassium cyanide, final concentration of 10 mM, was added due to necessity for prevention of leakage of reduction activity by inhibiting terminal oxidase.
With regard to the complex II of the bovine heart, mitochondria prepared according to the same method described in the referential example 1 was used. Succinate dehydrogenase activity of the complex II was measured by changes of maximum absorption, which was specific to the electron acceptor (DCIP), from oxidized form of DCIP to reduced form with the addition of succinate.

The mark [2] stands for this setting: purified Ascaris suum complex II, ubiquinone-2, DCIP, 10 mM succinate, pH 7.5, 25° C., read-out: 50% inhibitory concentration of the complex II (IC50), Ascaris suum.
[3] abbreviates: rat liver mitochondria, ubiquinone-2, DCIP, 10 mM succinate, pH 7.5, 25° C., read-out: 50% inhibitory concentration of the complex II (IC50), Rat liver.
Where [4] appears, read: bovine heart mitochondria, ubiquinone-2, DCIP, 10 mM succinate, pH 7.5, 25° C., read-out: 50% inhibitory concentration of the complex II (IC50), Bovine heart.

The structures appear in SMILES notation. Read-outs that look alike come from different tables or passages of the source.

T3 sequence (P31039 44-665 partner): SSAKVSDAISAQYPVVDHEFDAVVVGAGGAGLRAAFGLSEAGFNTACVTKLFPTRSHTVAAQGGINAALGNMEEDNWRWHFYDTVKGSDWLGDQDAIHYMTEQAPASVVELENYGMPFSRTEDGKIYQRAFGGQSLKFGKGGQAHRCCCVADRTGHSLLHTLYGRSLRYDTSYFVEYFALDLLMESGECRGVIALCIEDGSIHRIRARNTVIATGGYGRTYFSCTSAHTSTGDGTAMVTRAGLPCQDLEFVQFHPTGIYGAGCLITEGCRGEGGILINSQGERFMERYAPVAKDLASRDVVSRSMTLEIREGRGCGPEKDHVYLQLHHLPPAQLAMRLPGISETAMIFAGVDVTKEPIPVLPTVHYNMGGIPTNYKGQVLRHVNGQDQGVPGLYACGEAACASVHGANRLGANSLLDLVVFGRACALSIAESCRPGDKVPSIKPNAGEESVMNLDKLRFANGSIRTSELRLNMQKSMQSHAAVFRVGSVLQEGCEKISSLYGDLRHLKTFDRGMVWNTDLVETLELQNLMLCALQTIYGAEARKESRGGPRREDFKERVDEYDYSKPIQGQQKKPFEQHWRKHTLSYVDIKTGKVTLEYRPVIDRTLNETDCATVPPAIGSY
T3 sequence (Q3T189 29-280): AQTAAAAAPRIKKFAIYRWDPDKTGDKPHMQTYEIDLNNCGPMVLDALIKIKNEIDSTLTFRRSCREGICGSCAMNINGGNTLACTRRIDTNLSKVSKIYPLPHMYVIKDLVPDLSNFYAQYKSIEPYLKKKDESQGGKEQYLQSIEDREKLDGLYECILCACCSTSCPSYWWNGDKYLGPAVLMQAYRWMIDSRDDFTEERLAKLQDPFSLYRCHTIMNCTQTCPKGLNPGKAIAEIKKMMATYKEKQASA
T3 sequence (P35720 30-169): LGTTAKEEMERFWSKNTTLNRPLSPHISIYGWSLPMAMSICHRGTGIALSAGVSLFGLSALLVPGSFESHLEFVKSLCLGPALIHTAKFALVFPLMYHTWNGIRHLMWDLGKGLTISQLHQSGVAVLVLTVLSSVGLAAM
T3 sequence (Q95123 56-158): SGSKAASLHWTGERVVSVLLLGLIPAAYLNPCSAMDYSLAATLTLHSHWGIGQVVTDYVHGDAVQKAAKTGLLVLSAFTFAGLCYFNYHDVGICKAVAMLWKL
T2 sequence (Q920L2 35-656 partner): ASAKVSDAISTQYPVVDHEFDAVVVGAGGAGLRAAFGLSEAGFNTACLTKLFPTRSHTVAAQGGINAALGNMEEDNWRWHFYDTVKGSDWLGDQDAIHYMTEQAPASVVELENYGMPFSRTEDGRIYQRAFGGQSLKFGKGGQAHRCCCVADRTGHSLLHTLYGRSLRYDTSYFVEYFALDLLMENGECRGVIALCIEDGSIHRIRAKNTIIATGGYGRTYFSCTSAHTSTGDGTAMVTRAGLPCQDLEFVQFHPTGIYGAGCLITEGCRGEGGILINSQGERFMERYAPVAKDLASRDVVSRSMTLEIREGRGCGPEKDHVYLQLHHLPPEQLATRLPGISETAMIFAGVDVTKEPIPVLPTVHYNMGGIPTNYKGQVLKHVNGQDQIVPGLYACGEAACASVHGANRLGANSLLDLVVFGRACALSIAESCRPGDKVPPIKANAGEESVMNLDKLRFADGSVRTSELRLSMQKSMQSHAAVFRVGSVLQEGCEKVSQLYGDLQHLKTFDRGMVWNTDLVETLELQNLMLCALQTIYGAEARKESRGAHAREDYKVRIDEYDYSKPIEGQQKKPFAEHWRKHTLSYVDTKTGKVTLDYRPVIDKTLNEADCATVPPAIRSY
T2 sequence (P21913 31-282): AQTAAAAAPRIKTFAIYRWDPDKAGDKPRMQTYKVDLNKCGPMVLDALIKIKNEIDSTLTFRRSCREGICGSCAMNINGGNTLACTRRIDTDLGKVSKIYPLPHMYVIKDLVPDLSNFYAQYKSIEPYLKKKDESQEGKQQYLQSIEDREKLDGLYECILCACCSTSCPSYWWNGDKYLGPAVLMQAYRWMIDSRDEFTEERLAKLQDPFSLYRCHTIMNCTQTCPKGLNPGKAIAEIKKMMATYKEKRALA
T2 sequence (Q641Z9 30-169 limits assumed): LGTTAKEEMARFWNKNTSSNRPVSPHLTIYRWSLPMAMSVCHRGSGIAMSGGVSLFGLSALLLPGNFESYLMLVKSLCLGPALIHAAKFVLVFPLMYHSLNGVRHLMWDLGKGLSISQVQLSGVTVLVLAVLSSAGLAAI
T2 sequence (Q6PCT8 57-159): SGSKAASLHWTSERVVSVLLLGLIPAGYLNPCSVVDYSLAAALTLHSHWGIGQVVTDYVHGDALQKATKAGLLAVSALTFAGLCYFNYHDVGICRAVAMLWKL
T1 sequence (Q33862 19-645): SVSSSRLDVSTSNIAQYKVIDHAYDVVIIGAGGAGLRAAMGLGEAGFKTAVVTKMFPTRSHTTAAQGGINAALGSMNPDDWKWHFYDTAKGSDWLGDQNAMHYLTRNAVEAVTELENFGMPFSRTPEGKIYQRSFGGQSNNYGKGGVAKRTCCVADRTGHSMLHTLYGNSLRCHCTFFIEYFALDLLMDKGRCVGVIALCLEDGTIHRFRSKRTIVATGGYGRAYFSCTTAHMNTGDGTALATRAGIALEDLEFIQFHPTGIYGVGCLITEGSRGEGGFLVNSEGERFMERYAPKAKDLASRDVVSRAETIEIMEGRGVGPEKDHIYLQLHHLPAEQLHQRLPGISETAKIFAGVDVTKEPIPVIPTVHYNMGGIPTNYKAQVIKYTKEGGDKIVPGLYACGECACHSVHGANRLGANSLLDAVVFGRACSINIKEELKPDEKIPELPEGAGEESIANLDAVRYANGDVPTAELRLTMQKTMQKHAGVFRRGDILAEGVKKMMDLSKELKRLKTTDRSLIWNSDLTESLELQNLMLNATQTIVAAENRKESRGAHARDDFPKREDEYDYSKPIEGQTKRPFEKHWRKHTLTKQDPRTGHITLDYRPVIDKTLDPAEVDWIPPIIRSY
T1 sequence (P92506 32-188): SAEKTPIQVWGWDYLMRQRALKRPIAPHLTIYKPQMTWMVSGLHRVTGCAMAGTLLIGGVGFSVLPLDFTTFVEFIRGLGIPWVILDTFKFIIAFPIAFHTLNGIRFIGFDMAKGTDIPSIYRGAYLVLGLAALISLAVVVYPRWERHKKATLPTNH
T1 sequence (O44074 22-282): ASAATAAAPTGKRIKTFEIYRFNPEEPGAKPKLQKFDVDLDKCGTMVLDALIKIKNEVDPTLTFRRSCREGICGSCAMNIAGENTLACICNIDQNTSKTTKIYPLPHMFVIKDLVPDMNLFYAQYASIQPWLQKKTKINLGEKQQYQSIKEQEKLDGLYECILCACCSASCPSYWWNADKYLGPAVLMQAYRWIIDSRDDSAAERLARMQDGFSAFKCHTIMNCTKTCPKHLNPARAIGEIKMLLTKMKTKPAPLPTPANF
T1 sequence (P92507 26-156): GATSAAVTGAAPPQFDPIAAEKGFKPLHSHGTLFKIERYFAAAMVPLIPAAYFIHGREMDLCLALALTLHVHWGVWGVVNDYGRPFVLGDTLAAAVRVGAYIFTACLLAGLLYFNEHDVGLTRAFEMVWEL

In the case of `COc1nc(O)c(C(=O)C(C)CC(C)C(C)Cl)c(O)c1OC` (centres unmarked) [Atpenin A4, atpenin A4], the IC50 at Ascaris suum complex II (setting [2]) amounted to 220 nM; on rat liver complex II (setting [3]), 24 nM; in test [1] (setting [4]) it was 11 nM.

Regarding `COc1[nH]c(=O)c(C(=O)C(C)CC(C)C(Cl)CCl)c(O)c1OC` (centres unmarked) [Atpenin A5, atpenin A5], the IC50 came to 32 nM at Ascaris suum complex II, 3.7 nM at rat liver complex II and 3.6 nM in test [1].

For the compound `CCC(C)CC(C)C(=O)c1c(O)nc(OC)c(OC)c1O` (centres unmarked) [Atpenin B, atpenin B], the IC50 on Ascaris suum complex II (setting [2]) is 50 nM; on rat liver complex II (setting [3]), 20 nM; in test [1] (setting [4]), 10 nM.

With `CC1=C(C(=O)Nc2ccccc2)SCCO1` [Carboxin, carboxin, reference compound], the IC50 in test [1] (setting [4]) came out at 1100 nM.

As to `C/C=C/CC(C)C(=O)c1c(O)c(OC)c(OC)[nH]c1=O` (centres unmarked) [Harzianopyridone, harzianopyridone], the values for the IC50 (on Ascaris suum complex II (setting [2]); at rat liver complex II (setting [3]); in test [1] (setting [4])) were 2000 nM, 200 nM and 17 nM, respectively.

Consider `O=C(CC(=O)C(F)(F)F)c1cccs1` [Thenoyltrifluoro Aceton, thenoyltrifluoroacetone, reference compound], for which the IC50 in test [1] (setting [4]) was found to be 5800 nM.

The record behind these values is US7514455B2, “Inhibitors against complex II of electron transport system” (The Kitasato Institute, priority 2002, dated 2009).
